Where two headings read alike, the source gives them in different places.
Legend:
RAW264.7 = conditions: RAW
[1] = Chromatographic LogD measurement; conditions: pH 7.4
Experimental: ChromLogD measurements were adapted from a previously reported procedure.3 The reversed
phase HPLC measurements were measured using an Agilent 1100 Series, equipped with an
Eclipse Plus C18 column 4.6 x 50 mm, using a gradient of 50 mM ammonium acetate/CH3CN
0 – 100% over 10 min. The mobile phase was adjusted to pH = 7.4 using concentrated sodium
The retention times (log k’) of seven commercially available compounds which cover the log
D range from -0.02 to 3.18 (theophylline, 5-phenyl-1H-tetrazole, benzimidazole, colchicine,
acetophenone, indole, propiophenone, butyrophenone, and benzophenone) were calculated
using the below equation, where tR is the retention time of the compound and t0 is the column
dead time, measured by injecting uracil (0.853 min).
The average retention times (tR) of two consecutive injections of sample were used to calculate
the log k’ values, which were then used to create the standard curve (Figure S1).

[2] = system: seven mammalian cell lines; conditions: panel of seven mammalian cell lines including HepG2
[3] = 1O2 quantum yield by DPBF photooxidation; type: physicochemical; conditions: oxygenated methanol, 450 nm
Experimental: To quantify the generation of ^1O2 produced by the complexes, 1,3-diphenylisobenzofuran (DPBF) was used as a ^1O2 scavenger.
The 1O2 quantum yields were determined by tracking the photooxidation of 1,3-
fully aerated and exposed to LED irradiation at 450 nm (1 3 mW cm−2).
reaction mixture at 411 nm was recorded at one-second intervals.
cumulative absorbance changes at 411 nm versus cumulative irradiation time.

E. coli empty = conditions: dark and light samples equivalent
NDM-1 = NDM-1 (Klebsiella pneumoniae, UniProt C7C422)
Chain of NDM-1 (C7C422 31-270 limits assumed): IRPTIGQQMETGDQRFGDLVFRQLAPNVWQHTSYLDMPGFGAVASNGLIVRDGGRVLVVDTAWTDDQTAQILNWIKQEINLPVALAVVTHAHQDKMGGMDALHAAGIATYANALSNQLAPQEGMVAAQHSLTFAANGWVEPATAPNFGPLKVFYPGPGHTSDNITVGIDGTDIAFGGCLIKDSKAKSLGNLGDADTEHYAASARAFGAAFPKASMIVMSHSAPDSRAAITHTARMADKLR
Experimental: 1.4.1 Differential Scanning Fluorimetry (DSF)
DSF was performed using the Applied Biosystems QuantStudio 5 thermal cycler (Thermo
Fisher Scientific). Results were analysed and Tm determined with the Applied Biosystems
Protein Thermal Shift Software v1.4 and Tm values determined by the software. DSF was
conducted in sealed MicroAmp Optical 384-Well Reaction Plates (Thermo Fisher Scientific).
at a temperature ramp rate of 0.03 °C/s. For compound-protein interaction studies, a final
containing 5X SYPRO Orange (Thermo Fisher Scientific), 50 mM HEPES and 5%(v/v)
DMSO-d6. The final reaction volume was 20 µL per well. All DMSO compound stocks used
for DSF experiments were freshly prepared from solid stocks. All DSF measurements were
carried out in triplicate and the Tm reported is the mean value and the error is the standard
deviation. For all compounds tested, a no protein control run was included to see potential
changes in fluorescence resulting from a compound-dye interaction.

Experimental for E. coli NDM-1: based screening experiments were performed in biological triplicate, each replicate starting
from a new single colony inoculation. Statistical significance was determined using two-way
ANOVA followed by Sidak’s multiple comparison test, with a single pooled variance.
Concentration (MIC) assay
20% glycerol stocks of E. coli MG1655 pSU18 NDM-1 (E. coli NDM-1) and E. coli MG1655
pSU18 empty (E. coli empty) stored at -80 °C were used to streak nutrient agar plates. After
The MHBII culture growing both E. coli strains contained chloramphenicol
as an antibiotic resistance marker (2 µg/mL, equivalent to ¼ MICE. coli for chloramphenicol =
8 µg/mL). The resulting suspensions were each diluted 100 x (15 µL in 1.5 mL) in MHBII with
chloramphenicol (2 µg/mL), and the resultant suspensions were incubated to OD600 = 0.6-1.2
To generate the two-dimensional drug interaction matrix, four 96-well source plates were
prepared. In Source Plates A1-3, the three analytes were subjected to a two-fold serial dilution
across the rows (A to G), maintaining constant concentrations within each row and achieving
a vertical concentration gradient. In parallel, Source Plate B was prepared by diluting
meropenem in a two-fold series across the Columns (9 to 2), generating a horizontal
concentration gradient across the plate. Equal volumes (1 µL) from one of the source plates A
and source plate B were transferred into a 96-well assay plate to establish the checkerboard
layout with a 50X dilution into MHBII (50 μL total volume).
The prepared bacterial cells were diluted to OD600 = 0.01. Each prepared checkerboard plate
was then inoculated with 50 μL per well of bacterial culture in MHBII with ½ MIC of
chloramphenicol (100 μL total volume per well , final OD600 = 0.005). Control wells were
included to account for drug-free growth, sterility, and single-agent gradient exposures. Dark
For the light condition, the
OD600 was measured on a BMG Labtech CLARIOstar plate reader. The MIC is the first value
at which no growth is seen. All E. coli NDM-1 data were averaged from 3 biological replicates,

F[P-](F)(F)(F)(F)F.F[P-](F)(F)(F)(F)F.[Ru+2].c1ccc(-c2ccccn2)nc1.c1ccc(-c2ccccn2)nc1.c1ccc(-n2cnc3c4cccnc4c4ncccc4c32)cc1 [Ru2, [Ru(2,2'-bipyridine)2(1-phenyl-imidazo[4,5,f][1,10]phenanthroline)](PF6)2]
LD50 (RAW264.7; 24 h): > 50 µM | LD50 (RAW264.7; 48 h): > 50 µM | ChromLogD [1]: 1.21 | LD50 (HCT116; HCT116, 24 h): > 50 µM | LD50 (HCT116; HCT116, 48 h): > 50 µM | LD50 (HaCaT; 24 h): > 50 µM | LD50 (HaCaT; 48 h): > 50 µM | MIC (E. coli NDM-1; E. coli NDM-1, dark and light samples equivalent): >160 µM | Fold change in Meropenem MIC (E. coli NDM-1; compound 5 μM, dark): 0 fold | Fold change in Meropenem MIC (E. coli NDM-1; compound 5 μM, light 450 nm, 60 J cm^-2): 0 fold | Fold change in Meropenem MIC (E. coli NDM-1; compound 10 μM, dark): 0 fold | Fold change in Meropenem MIC (E. coli NDM-1; compound 10 μM, light 450 nm, 60 J cm^-2): 0 fold | Fold change in Meropenem MIC (E. coli NDM-1; compound 20 μM, dark): 0 fold | Fold change in Meropenem MIC (E. coli NDM-1; compound 20 μM, light 450 nm, 60 J cm^-2): 0 fold | Fold change in Meropenem MIC (E. coli NDM-1; compound 40 μM, dark): 0 fold | Fold change in Meropenem MIC (E. coli NDM-1; compound 40 μM, light 450 nm, 60 J cm^-2): 0 fold | Fold change in Meropenem MIC (E. coli NDM-1; compound 80 μM, dark): 0 fold | Fold change in Meropenem MIC (E. coli NDM-1; compound 80 μM, light 450 nm, 60 J cm^-2): 0 fold | Cytotoxicity (no cytotoxicity up to) [2]: > 50 µM | 1O2 quantum yield (ΦΔ) [3]: 0.87 | MIC (E. coli empty): >160 µM | Change in melting temperature (ΔT) of NDM-1 (NDM-1; compound 4 μM): 0.0 °C | Change in melting temperature (ΔT) of NDM-1 (NDM-1; compound 16 μM): 0.0 °C | Change in melting temperature (ΔT) of NDM-1 (NDM-1; compound 63 μM): 0.0 °C | Effect on melting temperature of NDM-1 (NDM-1; in words): no effect | LD50 (HeLa; 24 h): > 50 µM | LD50 (HeLa; 48 h): > 50 µM
